Laboratory results reported in patent publication US12637471B2, “Heterocyclic compounds, compositions, methods of preparation and uses thereof” (Organon R&D Finland Ltd, priority 2021, dated 2026).

Tests used:
Format in all cases: biochemical
[1] = target: T1, Recombinant human AKR1C3 (17β-HSD5) protein (Homo sapiens, UniProt P42330); assay: Inhibition of AKR1C3 (17β-hydroxysteroid dehydrogenase type 5) enzyme, fluorescence assay; settings: inhibitor at 500 nM
T1 construct: made in house; host or cells: E. coli
T1 sequence (P42330 1-323): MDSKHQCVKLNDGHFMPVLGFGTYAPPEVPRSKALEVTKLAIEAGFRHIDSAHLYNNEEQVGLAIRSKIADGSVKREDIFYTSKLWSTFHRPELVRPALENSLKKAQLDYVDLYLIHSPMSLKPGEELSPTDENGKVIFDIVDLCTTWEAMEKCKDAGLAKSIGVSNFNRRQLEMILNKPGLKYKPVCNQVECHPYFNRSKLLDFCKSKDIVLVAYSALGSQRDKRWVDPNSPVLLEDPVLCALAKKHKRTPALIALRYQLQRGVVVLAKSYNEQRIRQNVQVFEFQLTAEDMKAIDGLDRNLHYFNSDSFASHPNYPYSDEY
Outline: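 Percent inhibition at 500 nM compound, derived from substrate conversion; product alcohol measured by fluorescence (ex 420, em 510 nm) against a 1 μM–10 nM standard curve. Reaction: 27 nM recombinant AKR1C3, 1 μM ketone substrate, 1 mM NADPH, phosphate/EDTA buffer pH 7.4, 1% DMSO, RT for 60–120 min.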

[2] = target: T2, Recombinant human aldo-keto reductase family 1 member C2 (AKR1C2) protein (Homo sapiens, UniProt P52895); assay: Inhibition of the aldo-keto reductase family 1 member C2, 3H-dihydrotestosterone conversion; settings: inhibitor at 10 μM
T2 construct: made in house; host or cells: Sf-9 insect cells (baculovirus)
T2 sequence (P52895 1-323): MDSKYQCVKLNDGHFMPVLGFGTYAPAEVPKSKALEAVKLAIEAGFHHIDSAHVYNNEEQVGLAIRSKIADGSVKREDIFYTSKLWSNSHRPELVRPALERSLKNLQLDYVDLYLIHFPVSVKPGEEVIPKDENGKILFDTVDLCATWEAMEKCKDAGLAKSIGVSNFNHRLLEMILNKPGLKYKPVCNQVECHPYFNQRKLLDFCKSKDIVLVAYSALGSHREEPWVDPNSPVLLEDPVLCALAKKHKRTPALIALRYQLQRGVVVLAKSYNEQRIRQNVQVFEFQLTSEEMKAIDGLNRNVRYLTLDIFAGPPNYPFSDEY
Outline: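 Single-point screen at 10 μM inhibitor, 1% DMSO: [3H]DHT (6.25 nM) reduction to 3α-diol by baculovirus-made AKR1C2 (13.6 nM), pH 7.4 phosphate buffer, 1 mM NADPH, 37 °C for 45 min. Radio-UPLC quantified product versus substrate to give percent inhibition.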

[3] = target: T3, 17β-Hydroxysteroid Dehydrogenase Type 2 Enzyme (17β-HSD2) (Homo sapiens, UniProt P37059); assay: Inhibition of the 17β-hydroxysteroid dehydrogenase type 2 enzyme, 3H-testosterone conversion; settings: inhibitor at 10 μM
T3 construct: made in house; host or cells: Sf-9 insect cells (baculovirus)
T3 sequence (P37059 1-387): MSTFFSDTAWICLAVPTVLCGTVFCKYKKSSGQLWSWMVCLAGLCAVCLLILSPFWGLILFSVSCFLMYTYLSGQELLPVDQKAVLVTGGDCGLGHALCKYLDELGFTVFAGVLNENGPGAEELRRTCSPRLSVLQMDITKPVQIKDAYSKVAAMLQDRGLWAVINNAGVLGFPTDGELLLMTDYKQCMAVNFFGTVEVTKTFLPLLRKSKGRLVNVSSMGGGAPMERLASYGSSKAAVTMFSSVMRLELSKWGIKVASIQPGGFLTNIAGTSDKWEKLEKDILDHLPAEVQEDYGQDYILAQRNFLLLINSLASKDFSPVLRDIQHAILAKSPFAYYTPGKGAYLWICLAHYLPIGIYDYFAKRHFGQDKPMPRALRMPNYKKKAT
Outline: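 Single-point screen at 10 μM inhibitor, 1% DMSO: Sf-9-expressed human enzyme (105 nM), NAD 1 mM, ³H-labelled testosterone 56.25 nM, pH 8.5 phosphate/EDTA buffer, 30 min, room temperature. After TCA quench, substrate and product radioactivity quantified by UPLC with scintillation detection; inhibition percent from conversion.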

Row | Compound | inhibition at 0.5 µM [1] [%] | inhibition at 10 µM [2] [%] | inhibition at 10 µM [3] [%]
1 | N#CC(=C1CCN(C(=O)N2CCCC2)CC1)c1ccc(F)cc1 [Compound 6, 2-(4-fluorophenyl)-2-(1-(pyrrolidine-1-carbonyl)piperidin-4-ylidene)acetonitrile] | 95 | 8 | 10
2 | N#CC(=C1CCN(C(=O)N2CCn3cccc3C2)CC1)c1ccc(F)cc1 [Compound 28, 2-(4-fluorophenyl)-2-(1-(1,2,3,4-tetrahydropyrrolo[1,2-a]pyrazine-2-carbonyl)piperidin-4-ylidene)acetonitrile] | 97 | 8 | 27
3 | N#CC(=C1CCN(C(=O)N2CCCCC2)CC1)c1ccc(F)cc1 [Compound 3, 2-(4-fluorophenyl)-2-(1-(piperidine-1-carbonyl)piperidin-4-ylidene)acetonitrile] | 95 | 18 | 28
4 | N#CC(=C1CCN(C(=O)N2CCC(CO)CC2)CC1)c1cc(F)cc(F)c1 [Compound 50, 2-(3,5-difluorophenyl)-2-(1-(4-(hydroxymethyl)piperidine-1-carbonyl)piperidin-4-ylidene)acetonitrile] | 97 | 16 | 12
5 | N#CC(=C1CCN(C(=O)N2CC(C#N)C2)CC1)c1ccc(F)cc1F [Compound 40, 1-(4-(cyano(2,4-difluorophenyl)methylene)piperidine-1-carbonyl)azetidine-3-carbonitrile] | 95 | 14 | 5
6 | N#CC(=C1CCN(C(=O)N2C3CCC2COC3)CC1)c1ccc(F)c(F)c1 [Compound 31, 2-(1-(3-oxa-8-azabicyclo[3.2.1]octane-8-carbonyl)piperidin-4-ylidene)-2-(3,4-difluorophenyl)acetonitrile] | 95 | 11 | 9
7 | N#CC(=C1CCN(C(=O)N2CCc3cccnc32)CC1)c1ccc(F)cc1 [Compound 30, 2-(1-(2,3-dihydro-1H-pyrrolo[2,3-b]pyridine-1-carbonyl)piperidin-4-ylidene)-2-(4-fluorophenyl)acetonitrile] | 95 | 15 | 14
8 | N#CC(=C1CCN(C(=O)N2CCc3sccc3C2)CC1)c1ccc(Cl)cc1 [Compound 47] | 103 | 9 | 20
9 | CO[C@@H]1CCN(C(=O)N2CCC(=C(C#N)c3ccc(F)cc3)CC2)C1 [Compound 7, (R)-2-(4-fluorophenyl)-2-(1-(3-methoxypyrrolidine-1-carbonyl)piperidin-4-ylidene)acetonitrile] | 95 | 9 | 1

Further lines, results first:

Row | inhibition at 0.5 µM [1] [%] | inhibition at 10 µM [2] [%] | inhibition at 10 µM [3] [%] | Compound
10 | 99 | 33 | 2 | N#CC(=C1CCN(C(=O)N2CCn3cncc3C2)CC1)c1ccc(F)cc1F [Compound 123, 2-(2,4-difluorophenyl)-2-(1-(5,6,7,8-tetrahydroimidazo[1,5-a]pyrazine-7-carbonyl)piperidin-4-ylidene)acetonitrile]
11 | 97 | 18 | 17 | CCOC1CCN(C(=O)N2CCC(=C(C#N)c3ccc(Cl)s3)CC2)CC1 [Compound 125, 2-(5-chlorothiophen-2-yl)-2-(1-(4-ethoxypiperidine-1-carbonyl)piperidin-4-ylidene)acetonitrile]
12 | 98 | 33 | 7 | N#CC(=C1CCN(C(=O)N2CCc3nocc3C2)CC1)c1ccc(Cl)cc1 [Compound 141, 2-(4-chlorophenyl)-2-(1-(4,5,6,7-tetrahydroisoxazolo[4,3-c]pyridine-5-carbonyl)piperidin-4-ylidene)acetonitrile]
13 | 101 | 22 | -4 | N#CC(=C1CCN(C(=O)N2CCc3nocc3C2)CC1)c1cc(F)cc(F)c1 [Compound 158, 2-(3,5-difluorophenyl)-2-(1-(4,5,6,7-tetrahydroisoxazolo[4,3-c]pyridine-5-carbonyl)piperidin-4-ylidene)acetonitrile]
14 | 99 | 6 | 10 | COC1CCN(C(=O)N2CCC(=C(C#N)c3ccc(Cl)cc3)CC2)CC1 [Compound 79, 2-(4-chlorophenyl)-2-(1-(4-methoxypiperidine-1-carbonyl)piperidin-4-ylidene)acetonitrile]
15 | 99 | 42 | 24 | N#CC(=C1CCN(C(=O)N2CCc3[nH]ncc3C2)CC1)c1ccc(F)cc1F [Compound 122, 2-(2,4-difluorophenyl)-2-(1-(4,5,6,7-tetrahydro-1H-pyrazolo[4,3-c]pyridine-5-carbonyl)piperidin-4-ylidene)acetonitrile]
16 | 97 | 7 | 15 | N#CC(=C1CCN(C(=O)N2CCC(CO)CC2)CC1)c1ccc(OC(F)(F)F)cc1 [Compound 53, 2-(1-(4-(hydroxymethyl)piperidine-1-carbonyl)piperidin-4-ylidene)-2-(4-(trifluoromethoxy)phenyl)acetonitrile]
17 | 86 | -3 | 3 | N#CC(=C1CCN(C(=O)N2CCC(O)CC2)CC1)c1cccc2cn[nH]c12 [Compound 56, 2-(1-(4-hydroxypiperidine-1-carbonyl)piperidin-4-ylidene)-2-(1H-indazol-7-yl)acetonitrile]
18 | 100 | 14 | 1 | N#CC(=C1CCN(C(=O)N2CCc3nocc3C2)CC1)c1ccc(OC(F)(F)F)cc1 [Compound 159, 2-(1-(4,5,6,7-tetrahydroisoxazolo[4,3-c]pyridine-5-carbonyl)piperidin-4-ylidene)-2-(4-(trifluoromethoxy)phenyl)acetonitrile]
19 | 98 | 9 | 26 | N#CC(=C1CCN(C(=O)N2CCn3cncc3C2)CC1)c1cccc2cn[nH]c12 [Compound 72, 2-(1H-indazol-7-yl)-2-(1-(5,6,7,8-tetrahydroimidazo[1,5-a]pyrazine-7-carbonyl)piperidin-4-ylidene)acetonitrile]
20 | 99 | 6 | 20 | N#CC(=C1CCN(C(=O)N2CCC(CO)CC2)CC1)c1ccc(C(F)(F)F)cc1 [Compound 76, 2-(1-(4-(hydroxymethyl)piperidine-1-carbonyl)piperidin-4-ylidene)-2-(4-(trifluoromethyl)phenyl)acetonitrile]
21 | 98 | 13 | 12 | CCCOC1CCN(C(=O)N2CCC(=C(C#N)c3ccc(Cl)cc3)CC2)CC1 [Compound 134, 2-(4-chlorophenyl)-2-(1-(4-propoxypiperidine-1-carbonyl)piperidin-4-ylidene)acetonitrile]
22 | 96 | 14 | 30 | Cn1ncc2cccc(C(C#N)=C3CCN(C(=O)N4CCC(CO)CC4)CC3)c21 [Compound 118, 2-(1-(4-(hydroxymethyl)piperidine-1-carbonyl)piperidin-4-ylidene)-2-(1-methyl-1H-indazol-7-yl)acetonitrile]
